According to ChEMBL document CHEMBL5150013, “The Repertoire of Small-Molecule PET Probes for Neuroinflammation Imaging: Challenges and Opportunities beyond TSPO” (J Med Chem, 2021):
Blank lines part the entries; values can stand above or below the molecule they belong to.

Key:
[1] = molecular target: Sphingosine 1-phosphate receptor 2 (Homo sapiens, UniProt O95136)
[2] = cynomolgus monkey, in vivo, 2 h
[3] = molecular target: Cannabinoid receptor 2 (Homo sapiens, UniProt P34972)
[4] = molecular target: T1, Prostaglandin G/H synthase 2 (Homo sapiens, UniProt P35354)
T1 sequence (P35354 whole entry): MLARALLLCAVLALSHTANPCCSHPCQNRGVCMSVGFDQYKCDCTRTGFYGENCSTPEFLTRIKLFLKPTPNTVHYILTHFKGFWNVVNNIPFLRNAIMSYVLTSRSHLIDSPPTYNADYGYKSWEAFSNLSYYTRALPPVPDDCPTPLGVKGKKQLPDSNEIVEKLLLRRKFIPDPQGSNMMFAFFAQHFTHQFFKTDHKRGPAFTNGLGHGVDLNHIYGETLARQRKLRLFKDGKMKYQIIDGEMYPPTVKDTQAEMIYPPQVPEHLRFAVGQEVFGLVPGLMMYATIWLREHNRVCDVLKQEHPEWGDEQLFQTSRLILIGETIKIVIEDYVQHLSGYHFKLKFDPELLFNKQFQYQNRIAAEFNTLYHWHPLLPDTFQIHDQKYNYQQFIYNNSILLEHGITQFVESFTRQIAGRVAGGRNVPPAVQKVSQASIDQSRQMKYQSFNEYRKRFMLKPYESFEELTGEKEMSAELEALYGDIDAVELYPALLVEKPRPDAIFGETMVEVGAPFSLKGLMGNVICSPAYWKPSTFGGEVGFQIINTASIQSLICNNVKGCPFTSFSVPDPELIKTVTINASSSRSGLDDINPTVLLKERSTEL

[5] = rat, in vivo, 2 h
[6] = physchem; conditions: octanol/water
[7] = molecular target: Prostaglandin G/H synthase 1 (Homo sapiens, UniProt P23219)
Chain of Prostaglandin G/H synthase 1 (P23219 whole entry): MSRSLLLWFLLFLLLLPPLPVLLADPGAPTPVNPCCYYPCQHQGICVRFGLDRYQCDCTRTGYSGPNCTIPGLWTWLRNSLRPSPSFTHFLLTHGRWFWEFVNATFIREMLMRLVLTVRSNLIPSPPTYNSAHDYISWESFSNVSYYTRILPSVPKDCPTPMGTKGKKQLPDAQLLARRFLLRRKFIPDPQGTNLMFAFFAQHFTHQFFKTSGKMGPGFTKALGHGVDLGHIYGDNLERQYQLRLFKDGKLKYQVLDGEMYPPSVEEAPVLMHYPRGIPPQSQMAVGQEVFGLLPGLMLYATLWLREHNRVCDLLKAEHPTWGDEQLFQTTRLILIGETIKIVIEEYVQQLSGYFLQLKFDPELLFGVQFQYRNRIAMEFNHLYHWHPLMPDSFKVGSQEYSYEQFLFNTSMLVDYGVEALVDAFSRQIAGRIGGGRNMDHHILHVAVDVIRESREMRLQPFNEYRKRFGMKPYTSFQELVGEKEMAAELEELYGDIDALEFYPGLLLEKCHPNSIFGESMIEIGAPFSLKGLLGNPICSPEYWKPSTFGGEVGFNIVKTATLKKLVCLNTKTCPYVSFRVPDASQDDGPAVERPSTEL

[8] = in vivo; conditions: rat
[9] = molecular target: T2, P2X purinoceptor 7 (Homo sapiens, UniProt Q99572)
T2 sequence (Q99572 whole entry): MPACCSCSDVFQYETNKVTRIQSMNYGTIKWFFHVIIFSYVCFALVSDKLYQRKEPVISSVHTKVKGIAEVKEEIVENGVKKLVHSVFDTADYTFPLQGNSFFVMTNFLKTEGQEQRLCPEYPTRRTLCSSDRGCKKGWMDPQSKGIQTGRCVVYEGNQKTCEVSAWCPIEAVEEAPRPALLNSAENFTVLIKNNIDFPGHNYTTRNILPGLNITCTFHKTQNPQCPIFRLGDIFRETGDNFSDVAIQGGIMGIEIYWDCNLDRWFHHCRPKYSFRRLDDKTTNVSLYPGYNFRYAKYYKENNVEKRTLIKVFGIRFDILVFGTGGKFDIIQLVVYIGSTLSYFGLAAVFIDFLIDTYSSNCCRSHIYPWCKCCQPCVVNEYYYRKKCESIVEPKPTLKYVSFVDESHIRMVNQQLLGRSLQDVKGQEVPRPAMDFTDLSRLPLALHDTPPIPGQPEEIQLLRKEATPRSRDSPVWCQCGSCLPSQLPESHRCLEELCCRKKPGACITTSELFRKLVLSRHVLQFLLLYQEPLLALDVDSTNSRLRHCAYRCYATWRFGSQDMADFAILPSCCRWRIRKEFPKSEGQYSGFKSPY

[10] = mouse, in vivo, 0.05 h
[11] = molecular target: P2Y purinoceptor 12 (Homo sapiens, UniProt Q9H244); type: functional
Chain of P2Y purinoceptor 12 (Q9H244 whole entry): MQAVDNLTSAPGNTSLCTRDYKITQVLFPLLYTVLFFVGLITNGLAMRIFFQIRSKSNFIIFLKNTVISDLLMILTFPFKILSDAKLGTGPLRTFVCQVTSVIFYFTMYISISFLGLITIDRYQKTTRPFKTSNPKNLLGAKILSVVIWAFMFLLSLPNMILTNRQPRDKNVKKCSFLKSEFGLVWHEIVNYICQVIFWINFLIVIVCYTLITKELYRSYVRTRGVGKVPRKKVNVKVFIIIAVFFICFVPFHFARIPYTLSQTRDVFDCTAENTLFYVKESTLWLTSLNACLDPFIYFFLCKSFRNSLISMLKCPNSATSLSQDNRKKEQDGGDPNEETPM

[12] = molecular target: T3, Macrophage colony-stimulating factor 1 receptor (Homo sapiens, UniProt P07333)
T3 sequence (P07333 whole entry): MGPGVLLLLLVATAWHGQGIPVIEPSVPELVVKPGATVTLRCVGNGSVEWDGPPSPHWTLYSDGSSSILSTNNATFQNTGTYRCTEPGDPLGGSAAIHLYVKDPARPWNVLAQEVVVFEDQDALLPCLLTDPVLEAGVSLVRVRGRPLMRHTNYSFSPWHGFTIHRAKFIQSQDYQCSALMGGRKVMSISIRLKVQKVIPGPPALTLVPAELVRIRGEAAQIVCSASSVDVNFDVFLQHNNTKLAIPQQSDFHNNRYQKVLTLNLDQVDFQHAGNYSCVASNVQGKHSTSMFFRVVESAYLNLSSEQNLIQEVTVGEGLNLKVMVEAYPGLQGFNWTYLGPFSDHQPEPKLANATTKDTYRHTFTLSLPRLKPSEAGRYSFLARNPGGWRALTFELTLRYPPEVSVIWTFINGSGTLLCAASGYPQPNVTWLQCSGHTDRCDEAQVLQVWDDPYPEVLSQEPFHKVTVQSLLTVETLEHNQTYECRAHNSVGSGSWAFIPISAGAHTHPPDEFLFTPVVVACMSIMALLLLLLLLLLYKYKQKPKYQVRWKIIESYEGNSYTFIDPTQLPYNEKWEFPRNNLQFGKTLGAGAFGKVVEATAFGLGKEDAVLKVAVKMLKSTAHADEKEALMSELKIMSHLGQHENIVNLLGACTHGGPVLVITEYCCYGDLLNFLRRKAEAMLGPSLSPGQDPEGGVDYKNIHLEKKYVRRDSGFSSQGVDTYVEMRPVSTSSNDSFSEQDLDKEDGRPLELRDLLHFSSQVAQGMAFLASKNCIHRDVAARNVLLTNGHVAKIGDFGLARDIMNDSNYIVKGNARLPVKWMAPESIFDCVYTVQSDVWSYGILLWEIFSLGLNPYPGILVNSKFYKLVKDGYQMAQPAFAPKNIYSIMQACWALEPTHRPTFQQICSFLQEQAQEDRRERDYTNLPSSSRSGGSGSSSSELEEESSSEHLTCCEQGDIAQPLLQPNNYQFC

[13] = molecular target: T3, Macrophage colony-stimulating factor 1 receptor; remark: listed apart in the source
[14] = human, Brain, 2 min
[15] = mouse, in vivo
[16] = rhesus monkey, in vivo
[17] = in vivo; conditions: mouse, hcc4006
[18] = in vivo; conditions: mouse
[19] = primates, Brain, 5 min
[20] = rhesus monkey, in vivo, 7 min
[21] = primates, Brain, 1.417 h
[22] = rhesus monkey, in vivo, 7 min; remark: listed apart in the source
[23] = primates, Brain
[24] = mouse, in vivo, 0.5 h
[25] = mouse, in vivo, 0.5 h; remark: listed apart in the source
[26] = mouse, in vivo; remark: listed apart in the source
[27] = papio anubis, in vivo
[28] = molecular target: T4, Amine oxidase [flavin-containing] B (Homo sapiens, UniProt P27338)
T4 sequence (P27338 whole entry): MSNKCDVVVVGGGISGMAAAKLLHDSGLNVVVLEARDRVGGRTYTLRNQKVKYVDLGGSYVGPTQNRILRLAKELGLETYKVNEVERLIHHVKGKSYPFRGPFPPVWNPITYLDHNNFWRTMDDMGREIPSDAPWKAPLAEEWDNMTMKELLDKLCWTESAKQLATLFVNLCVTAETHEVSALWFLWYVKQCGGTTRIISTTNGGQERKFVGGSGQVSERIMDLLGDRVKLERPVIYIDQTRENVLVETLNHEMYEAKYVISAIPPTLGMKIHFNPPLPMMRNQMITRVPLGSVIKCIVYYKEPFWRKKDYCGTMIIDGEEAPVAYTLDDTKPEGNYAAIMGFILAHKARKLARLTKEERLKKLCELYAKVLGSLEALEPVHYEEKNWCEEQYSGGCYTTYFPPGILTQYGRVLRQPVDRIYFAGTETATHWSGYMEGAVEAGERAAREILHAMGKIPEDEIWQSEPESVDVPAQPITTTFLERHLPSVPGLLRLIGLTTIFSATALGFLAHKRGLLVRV

[29] = papio anubis, in vivo; remark: listed apart in the source
[30] = molecular target: T2, P2X purinoceptor 7; remark: listed apart in the source
[31] = primates, Brain; remark: listed apart in the source
[32] = in vivo; conditions: C57BL/6, mouse
[33] = papio papio, in vivo
[34] = molecular target: T4, Amine oxidase [flavin-containing] B; remark: listed apart in the source
[35] = mouse, in vivo; remark: listed apart in the source
[36] = mouse, in vivo, 20 min
[37] = in vivo; conditions: mouse; remark: listed apart in the source
[38] = mouse, in vivo; remark: listed apart in the source
[39] = mouse, in vivo; remark: listed apart in the source
[40] = mouse, in vivo, 10 min
[41] = in vivo; conditions: mouse; remark: listed apart in the source
[42] = in vivo; conditions: mouse; remark: listed apart in the source
[43] = rhesus monkey, in vivo; remark: listed apart in the source
[44] = molecular target: Melatonin receptor type 1A (Homo sapiens, UniProt P48039)
Chain of Melatonin receptor type 1A (P48039 whole entry): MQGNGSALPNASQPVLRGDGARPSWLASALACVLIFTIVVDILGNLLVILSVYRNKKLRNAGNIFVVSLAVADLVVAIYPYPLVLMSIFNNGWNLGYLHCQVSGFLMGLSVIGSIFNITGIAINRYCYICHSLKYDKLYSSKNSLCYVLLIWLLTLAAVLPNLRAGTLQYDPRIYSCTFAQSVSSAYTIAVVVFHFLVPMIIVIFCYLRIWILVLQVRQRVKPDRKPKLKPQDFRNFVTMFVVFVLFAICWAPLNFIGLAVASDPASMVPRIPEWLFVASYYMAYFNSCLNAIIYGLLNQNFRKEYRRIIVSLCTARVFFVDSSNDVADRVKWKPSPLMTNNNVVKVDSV

[45] = molecular target: Sphingosine 1-phosphate receptor 1 (Homo sapiens, UniProt P21453)
Chain of Sphingosine 1-phosphate receptor 1 (P21453 whole entry): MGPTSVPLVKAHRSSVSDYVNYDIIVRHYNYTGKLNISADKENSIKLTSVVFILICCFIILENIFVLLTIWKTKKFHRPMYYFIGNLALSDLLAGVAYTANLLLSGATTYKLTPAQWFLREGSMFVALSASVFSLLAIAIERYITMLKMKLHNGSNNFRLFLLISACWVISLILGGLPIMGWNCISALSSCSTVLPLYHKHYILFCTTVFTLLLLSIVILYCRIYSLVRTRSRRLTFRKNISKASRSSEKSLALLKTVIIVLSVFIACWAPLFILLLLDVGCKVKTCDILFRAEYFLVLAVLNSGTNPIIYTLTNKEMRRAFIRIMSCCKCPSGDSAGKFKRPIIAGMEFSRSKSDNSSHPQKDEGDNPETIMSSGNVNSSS

[46] = primates, Brain, 4 min
[47] = in vivo; conditions: C3H, mouse, iv, 10 mg/kg
[48] = in vivo; conditions: C3H, mouse, iv, 10 mg/kg; remark: listed apart in the source
[49] = rhesus monkey, in vivo; remark: listed apart in the source

Chain of Sphingosine 1-phosphate receptor 2 (O95136 whole entry): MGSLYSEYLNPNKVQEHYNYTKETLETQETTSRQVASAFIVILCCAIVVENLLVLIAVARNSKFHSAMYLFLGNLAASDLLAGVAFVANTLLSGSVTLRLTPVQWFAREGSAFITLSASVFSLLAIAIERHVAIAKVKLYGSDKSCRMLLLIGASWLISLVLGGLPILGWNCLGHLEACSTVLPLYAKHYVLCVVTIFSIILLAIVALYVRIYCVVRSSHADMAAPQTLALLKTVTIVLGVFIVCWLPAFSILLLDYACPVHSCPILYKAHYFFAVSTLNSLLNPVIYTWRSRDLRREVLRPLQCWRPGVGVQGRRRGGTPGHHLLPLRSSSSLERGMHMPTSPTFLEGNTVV
Chain of Cannabinoid receptor 2 (P34972 whole entry): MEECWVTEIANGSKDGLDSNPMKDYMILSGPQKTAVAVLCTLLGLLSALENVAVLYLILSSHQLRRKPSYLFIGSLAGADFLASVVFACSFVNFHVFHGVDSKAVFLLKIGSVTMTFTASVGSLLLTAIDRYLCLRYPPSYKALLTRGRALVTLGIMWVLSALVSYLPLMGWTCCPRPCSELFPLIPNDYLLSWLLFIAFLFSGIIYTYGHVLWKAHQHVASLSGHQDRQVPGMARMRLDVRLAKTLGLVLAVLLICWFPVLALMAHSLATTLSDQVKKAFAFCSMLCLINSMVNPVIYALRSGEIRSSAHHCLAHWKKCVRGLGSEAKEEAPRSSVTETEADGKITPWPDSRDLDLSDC

IC50 [1]: 68.5 nM
Structure (SMILES): Cc1nn(C)c2nc(NNC(=O)Nc3cc(Cl)nc(Cl)c3)cc(C(C)C)c12

Structure (SMILES): C#CCN(C)[C@H](C[18F])Cc1ccccc1
SUV [2]: 6

Structure (SMILES): CCCCOc1c(OC)ccc2cc(C(=O)NC3CCCCC3)c(=O)[nH]c12
Ki [3]: 9.6 nM

Ki [4]: 250 nM
SUV [5]: 0.17
Structure (SMILES): CS(=O)(=O)c1ccc(-c2ccsc2-c2ccc(F)cc2)cc1

Structure (SMILES): CCOCCn1cc(C(=O)NC23CC4CC(CC(C4)C2)C3)c(=O)c2cccc(OC)c21
logD [6]: 2.8

IC50 [7]: 3300 nM
Structure (SMILES): CS(=O)(=O)c1ccc(-n2c(-c3ccc(O[11CH3])c(F)c3)cnc2Cl)cc1

tissue uptake at 5 min [8]: 0.46 %ID/g
Structure (SMILES): OCc1cn(Cc2ccc(-c3noc(-c4ccc(OCC[18F])c(C(F)(F)F)c4)n3)cc2)nn1

Structure (SMILES): N#C/N=C(/NCc1ccc([18F])cc1)Nc1cccc2ncccc12
Ki [9]: 2.9 nM

SUV [10]: 3.5
Structure (SMILES): [13CH3]N1C=C(C(N)=O)Cc2ccccc21

IC50 [7]: 10000 nM
Structure (SMILES): [11CH3]Oc1ccc(-c2cnc(Cl)n2-c2ccc(S(N)(=O)=O)cc2)cc1F

EC50 [11]: 60 nM
Structure (SMILES): [11CH3]Oc1ccc(Cl)c(C(=O)NCC23CC4(F)CC(F)(CC(F)(C4)C2)C3)c1

IC50 [12]: 6 nM
Ki [13]: 8 nM
Structure (SMILES): CCOc1cc2ccc(C(N)=O)c(Nc3ccc(F)cc3F)c2cc1N1CCN([11CH3])CC1

SUV [14]: 1.5
IC50 [7]: 47 nM
SUV [15]: 0.97
Structure (SMILES): COC(=O)C([11CH3])c1cccc(C(=O)c2ccccc2)c1 (configuration not stated)

Vd [16]: 37%
Structure (SMILES): [11CH3]Oc1ccc(Cc2cn[nH]c2)nc1-c1cccc([N+](=O)[O-])c1

tissue uptake at 2 min [17]: 7.85 %ID/g
tissue uptake at 2 min [18]: 0.2 %ID/g
Structure (SMILES): Cc1ccc(-c2ccc3cc(OC[C@H](O)C[18F])ccc3n2)cn1

IC50 [7]: 30000 nM
Structure (SMILES): NS(=O)(=O)c1ccc(-n2nc3ccccc3c2-c2ccc([18F])cc2)cc1

SUV [19]: 3.2
Structure (SMILES): OCCOCc1ccc(-c2noc(-c3ccc(OCC[18F])c(C(F)(F)F)c3)n2)cc1

SUV [20]: 4.11
SUV [21]: 1.99
SUV [22]: 1.05
SUV [23]: 54%
Structure (SMILES): [2H]C([2H])([18F])Oc1nc(-c2ccc(OC)cc2)n(-c2ccc(OC)cc2)n1

SUV [24]: 0.48
SUV [25]: 0.58
IC50 [1]: 9.52 nM
Structure (SMILES): Cc1nn(C)c2nc(NNC(=O)C(C)c3cc(Cl)nc(O[11CH3])c3)cc(C(C)C)c12 (configuration not stated)

SUV [26]: 0.6
Structure (SMILES): [11CH3]N1CCN(c2ccc(NC(=O)c3ccc(C#N)o3)c(N3CCCCC3)c2)CC1

Vd [27]: 10.3 ml/cm3
Ki [28]: 2.9 nM
Vd [29]: 10.9 ml/cm3
Structure (SMILES): COCC1CN(c2noc3cc(OCCCC(F)(F)F)ccc23)[11C](=O)O1 (configuration not stated)

IC50 [30]: 40 nM
Structure (SMILES): COc1ccc(CC(=O)NC(N/C(=N/C#N)Nc2cccc3ncccc23)C(C)(C)C)cc1O[11CH3] (configuration not stated)

SUV [21]: 0.62
SUV [31]: 4.26
Structure (SMILES): COc1ccc(-c2nc(O[11CH3])nn2-c2ccc(OC)cc2)cc1

tissue uptake at 1 h [32]: 7 %ID/g
Structure (SMILES): Cc1ccccc1-c1ccc(-c2nc(-c3ccc(CN(C)CCC(=O)O)c(F)c3)no2)cc1C(F)(F)F

Drug uptake [33]: 70%
IC50 [34]: 4 nM
Structure (SMILES): N#CCCn1nc(-c2ccc(OCc3ccccc3)cc2)o[11c]1=O

Drug uptake [35]: 10 %ID/cm3
Drug uptake [36]: 150%
Structure (SMILES): CN1c2cc(N)ccc2-c2ccc(N)cc2C1c1ccc(OCC[18F])cc1 (configuration not stated)

IC50 [7]: 10000 nM
Structure (SMILES): [11CH3]Oc1ccc(-c2c(-c3ccc(S(N)(=O)=O)cc3)[nH]c3ccccc23)cc1

tissue uptake [37]: 5 %ID/g
SUV [38]: 1.74
Structure (SMILES): O=C1Nc2c(Cl)ccc(OCC[18F])c2C2(CCCCC2)N1

Drug uptake [39]: 35%
Structure (SMILES): CCCCNc1ncc(-c2cccc([18F])n2)c(NC2CCC(O)CC2)n1 (configuration not stated)

tissue uptake at 5 min [8]: 0.027 %ID/g
SUV [40]: 7
Structure (SMILES): O=C(O)C1CN(Cc2ccc(-c3noc(-c4ccc(OCC[18F])c(C(F)(F)F)c4)n3)cc2)C1

tissue uptake at 1 h [41]: 3.79 %ID/g
tissue uptake at 1 h [42]: 1.74 %ID/g
Structure (SMILES): CS(=O)(=O)c1ccc(-c2cc(C(F)(F)F)nc(NCc3ccc([18F])cc3)n2)cc1

SUV [31]: 0.7
Structure (SMILES): OCCOCCOCc1ccc(-c2noc(-c3ccc(OCC[18F])c(C(F)(F)F)c3)n2)cc1

IC50 [7]: > 1000 nM
Drug uptake [43]: 41%
Structure (SMILES): CS(=O)(=O)c1ccc(-c2cc(O[11CH3])nc(NCc3cccs3)n2)cc1

Ki [44]: 90 nM
Structure (SMILES): O=C(c1ccc([18F])cc1)N(Cc1ccccc1)C1CCCCC1

SUV [38]: 2.3
Structure (SMILES): CN1c2cc(N)ccc2-c2ccc(N)cc2C1c1ccc([18F])cc1 (configuration not stated)

IC50 [45]: 15.4 nM
SUV [46]: 2.5
Structure (SMILES): OCC(O)c1ccc(-c2noc(-c3ccc(OCC[18F])c(C(F)(F)F)c3)n2)cc1 (configuration not stated)

IC50 [7]: 100000 nM
Structure (SMILES): Cc1ccc(-n2nc(C(F)(F)F)cc2-c2ccc(S(=O)(=O)Nc3ccc([18F])cc3)cc2)cc1

IC50 [30]: 3 nM
Structure (SMILES): [11CH3]N1C(=O)CC[C@H]1C(=O)NCc1cccc(C(F)(F)F)c1Cl

SUV [46]: 3.8
Structure (SMILES): OCc1ccc(-c2noc(-c3ccc(OCC[18F])c(C(F)(F)F)c3)n2)cc1

SUV [21]: 1.99
SUV [31]: 4.29
SUV [23]: 54%
Structure (SMILES): COc1ccc(-n2nc(OCC(F)(F)F)nc2-c2ccc(O[11CH3])cc2)cc1

Structure (SMILES): CN([11CH3])CCc1ccccc1
tissue uptake at 1 min [47]: 7.9 %ID/g
tissue uptake at 1 h [48]: 2.8 %ID/g

Vd [16]: 48%
Structure (SMILES): [11CH3]Oc1ccc(Cc2ccncc2)nc1-c1cccc([N+](=O)[O-])c1

SUV [49]: <= 3.1
SUV [38]: <= 1.2
Structure (SMILES): COc1ccc(COc2ccc(Cc3cnc(N)nc3N)cc2OC)cc1 [GW632580X]
